Columns and labels:
[1] = tested on: mitochondrial transcription (7S RNA) in HeLa cells; assay: Quantitative real time-PCR assay of inhibition of mitochondrial transcription (cellular qPCR assay IMT); assay type: cell-based; settings: Homo sapiens, 4 h compound incubation, qRT-PCR according to Example 5, activity class
Procedure: Quantitative real-time PCR (qRT-PCR), based on the TagMan™ (Thermo Fisher Scientific, Waltham Mass.) technology, was carried out essentially as described in (Heid et al., 1996). HeLa cells were plated one day before compound treatment in RPMI medium supplemented with 10% Fetal Calf Serum and 2 mM L-glutamine. Cells were incubated with dilution series of compounds or vehicle (DMSO) for 4 h, prior to harvest and extraction of the RNA using the RNeasy Mini Kit (Qiagen, Hilden D), according to the manufacturer's instructions. RNA concentrations were measured spectroscopically, using a NanoDrop-2000 (Thermo Fisher Scientific, Waltham Mass.) and normalized prior to cDNA synthesis, using a ‘High-Capacity cDNA Reverse Transcription Kit’ (Thermo Fisher Scientific, Waltham Mass.). qRT-PCR was carried out using the ‘TaqMan Fast Advance Master Mix’ (Thermo Fisher Scientific, Waltham Mass.) on a 7500 Fast Real-Time PCR machine (Applied Biosystems, Foster City Calif.)
For these measurements, three genes were used to compare the effect of the scrutinized compounds in relation to their concentration. The POLRMT-gene was used to detect potential influences on nuclear transcription. Mitochondrial transcription in vivo was monitored by measurements 7S RNA. The TBP (TATA-box binding protein) gene was employed as the control (housekeeping gene) during qRT-PCR. The short-lived mitochondrial 7S RNA, which is not post-transcriptionally stabilized, allowed us to monitor rapid changes in mitochondrial transcription activity following compound addition. Biological triplicates were analyzed using the comparative CT Method (ΔΔCt) method (Bubner and Baldwin, 2004) and reported as Rq % values (Rq=Relative quantification=2-ΔΔCt).

[2] = molecular target: mitochondrial RNA-polymerase (POLRMT) (Mus musculus, UniProt Q8BKF1); assay: Homogeneous TR-FRET assay for mitochondrial transcription activity; assay type: biochemical; settings: homogeneous TR-FRET assay according to Example 4; activity class
Sequence of mitochondrial RNA-polymerase (POLRMT) (Q8BKF1 42-1207): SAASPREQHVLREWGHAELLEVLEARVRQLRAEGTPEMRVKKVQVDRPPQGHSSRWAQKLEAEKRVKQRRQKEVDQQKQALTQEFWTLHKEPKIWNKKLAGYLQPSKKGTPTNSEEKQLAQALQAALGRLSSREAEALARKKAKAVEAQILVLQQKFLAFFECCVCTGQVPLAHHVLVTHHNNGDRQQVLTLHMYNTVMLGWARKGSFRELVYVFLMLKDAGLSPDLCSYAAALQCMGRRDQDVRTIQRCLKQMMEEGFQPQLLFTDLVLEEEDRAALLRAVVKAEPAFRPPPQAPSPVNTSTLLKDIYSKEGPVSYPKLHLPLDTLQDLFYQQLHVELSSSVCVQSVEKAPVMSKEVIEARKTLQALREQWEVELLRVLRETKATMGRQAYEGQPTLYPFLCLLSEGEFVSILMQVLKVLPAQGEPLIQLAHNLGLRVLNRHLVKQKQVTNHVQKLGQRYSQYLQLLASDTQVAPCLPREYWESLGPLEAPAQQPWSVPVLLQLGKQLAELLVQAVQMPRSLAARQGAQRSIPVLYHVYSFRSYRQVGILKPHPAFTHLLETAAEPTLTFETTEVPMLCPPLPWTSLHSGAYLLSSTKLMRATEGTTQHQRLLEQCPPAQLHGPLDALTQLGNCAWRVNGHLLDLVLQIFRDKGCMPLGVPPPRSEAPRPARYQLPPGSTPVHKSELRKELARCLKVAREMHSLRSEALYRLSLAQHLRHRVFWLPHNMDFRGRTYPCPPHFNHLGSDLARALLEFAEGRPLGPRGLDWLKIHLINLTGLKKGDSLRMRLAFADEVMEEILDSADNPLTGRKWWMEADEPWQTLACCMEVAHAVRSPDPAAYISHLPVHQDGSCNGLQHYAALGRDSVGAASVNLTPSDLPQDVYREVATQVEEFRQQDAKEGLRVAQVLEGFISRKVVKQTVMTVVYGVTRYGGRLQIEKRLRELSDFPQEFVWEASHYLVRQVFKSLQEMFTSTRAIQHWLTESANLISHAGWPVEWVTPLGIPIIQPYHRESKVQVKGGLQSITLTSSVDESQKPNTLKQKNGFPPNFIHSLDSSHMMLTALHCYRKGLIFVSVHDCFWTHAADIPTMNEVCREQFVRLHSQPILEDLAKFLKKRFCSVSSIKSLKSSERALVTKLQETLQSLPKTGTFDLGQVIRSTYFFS
Summary of the method: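 Mouse POLRMT, TFAM and TFB2M with linearized pUC-LSP template in 10 mM Tris-HCl pH 7.5, 10 mM MgCl2, 40 mM NaCl; compounds at 10 μM or serial dilution, 10 min RT preincubation. Started with 500 μM each […], 2 h RT; 407 bp RNA product detected by hybridized Eu-cryptate/ATTO647N probe TR-FRET (ex 340, em 665 nm).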

IC50 [1] | IC50 [2] | Compound
< 10 nM | < 20 nM | C[C@@H](Oc1ccc2c(-c3ccc(F)cc3Cl)cc(=O)oc2c1)C(=O)N1CCC[C@H](NC(=O)CCl)C1 [Compound 167, 2-chloro-N-[(3S)-1-[(2R)-2-[4-(2-chloro-4-fluoro-phenyl)-2-oxo-chromen-7-yl]oxypropanoyl]-3-piperidyl]acetamide]
500 to 5000 nM | 20 to 100 nM | C[C@@H](Oc1ccc2c(-c3ccc(F)cc3Cl)cc(=O)oc2c1)C(=O)N1CC[C@H](C(=O)O)C1 [Compound 159, (3S)-1-[(2R)-2-[4-(2-chloro-4-fluoro-phenyl)-2-oxo-chromen-7-yl]oxypropanoyl]pyrrolidine-3-carboxylic acid]
< 10 nM | < 20 nM | CCC(=O)N[C@H]1CCCN(C(=O)[C@@H](C)Oc2ccc3c(-c4ccc(F)cc4Cl)cc(=O)oc3c2)C1 [Compound 169, N-[(3S)-1-[(2R)-2-[4-(2-chloro-4-fluoro-phenyl)-2-oxo-chromen-7-yl]oxypropanoyl]-3-piperidyl]propanamide]
< 10 nM | 20 to 100 nM | Cc1ccsc1-c1cc(=O)oc2cc(O[C@H](C)C(=O)N3CCCCC3)ccc12 [Compound 177, 7-[(1R)-1-methyl-2-oxo-2-(1-piperidyl)ethoxy]-4-(3-methyl-2-thienyl)chromen-2-one]
< 10 nM | 20 to 100 nM | CC(C)OC(=O)OCOC(=O)C[C@H]1CCCN(C(=O)[C@@H](C)Oc2ccc3c(-c4ccc(F)cc4Cl)cc(=O)oc3c2)C1 [Compound 127, isopropoxycarbonyloxymethyl 2-[(3R)-1-[(2R)-2-[4-(2-chloro-4-fluoro-phenyl)-2-oxo-chromen-7-yl]oxypropanoyl]-3-piperidyl]acetate]
10 to 50 nM | 100 to 1000 nM | Cc1ccsc1-c1cc(=O)oc2cc(O[C@H](C)C(=O)N(C)C)ccc12 [Compound 179, (2R)-N,N-dimethyl-2-[4-(3-methyl-2-thienyl)-2-oxo-chromen-7-yl]oxy-propanamide]
< 10 nM | 20 to 100 nM | CCOC(=O)C[C@H]1CCCN(C(=O)[C@@H](C)Oc2ccc3c(-c4sccc4C)cc(=O)oc3c2)C1 [Compound 180, ethyl 2-[(3R)-1-[(2R)-2-[4-(3-methyl-2-thienyl)-2-oxo-chromen-7-yl]oxypropanoyl]-3-piperidyl]acetate]
< 10 nM | < 20 nM | C[C@@H](Oc1ccc2c(-c3ccc(F)cc3Cl)cc(=O)oc2c1)C(=O)N1CCN(C(=O)CCl)CC1 [Compound 166, (R)-4-(2-chloro-4-fluorophenyl)-7-((1-(4-(2-chloroacetyl)piperazin-1-yl)-1-oxopropan-2-yl)oxy)-2H-chromen-2-one]
50 to 500 nM | 20 to 100 nM | COC(=O)c1cccc(NC(=O)[C@@H](C)Oc2ccc3c(-c4ccc(F)cc4Cl)cc(=O)oc3c2)n1 [Compound 149, methyl 6-[[(2R)-2-[4-(2-chloro-4-fluoro-phenyl)-2-oxo-chromen-7-yl]oxypropanoyl]amino]pyridine-2-carboxylate]
 | 20 to 100 nM | C[C@@H](Oc1ccc2c(-c3ccc(F)cc3Cl)cc(=O)oc2c1)C(=O)N1CCN[C@@H](C(=O)O)C1 [Compound 150, (2R)-4-[(2R)-2-[4-(2-chloro-4-fluoro-phenyl)-2-oxo-chromen-7-yl]oxypropanoyl]piperazine-2-carboxylic acid]
 | < 20 nM | C[C@@H](Oc1ccc2c(-c3ccc(F)cc3Cl)cc(=O)oc2c1)C(=O)Nc1ccc(CO)cc1 [Compound 130, (2R)-2-[4-(2-chloro-4-fluoro-phenyl)-2-oxo-chromen-7-yl]oxy-N-[4-(hydroxymethyl)phenyl]propanamide]
 | 1000 to 5000 nM | CCOC(=O)C(C)Oc1ccc2c(-c3c(F)cccc3F)cc(=O)oc2c1 (centres unmarked) [Compound 176, ethyl 2-[4-(2,6-difluorophenyl)-2-oxo-chromen-7-yl]oxypropanoate]
 | 100 to 1000 nM | C[C@@H](Oc1ccc2c(-c3c(Cl)cccc3Cl)cc(=O)oc2c1)C(=O)N1CCC[C@H](C(=O)O)C1 [Compound 163, (3S)-1-[(2R)-2-[4-(2,6-dichlorophenyl)-2-oxo-chromen-7-yl]oxypropanoyl]piperidine-3-carboxylic acid]

More lines, now with the values behind:

Compound | IC50 [1] | IC50 [2]
CC(Oc1ccc2c(-c3ccccc3Cl)cc(=O)oc2c1)C(=O)NC1CC1 (centres unmarked) [Compound 26, 2-[4-(2-chlorophenyl)-2-oxo-chromen-7-yl]oxy-N-cyclopropyl-propanamide] | < 10 nM | < 20 nM
CC(Oc1ccc2c(-c3ccc(F)cc3Cl)cc(=O)oc2c1)C(=O)N1CCCC(C)(C(=O)O)C1 (centres unmarked) [Compound 37, 1-[2-[4-(2-chloro-4-fluoro-phenyl)-2-oxo-chromen-7-yl]oxypropanoyl]-3-methyl-piperidine-3-carboxylic acid] | < 10 nM | < 20 nM
Cc1ccccc1-c1cc(=O)oc2cc(OC(C)(C)C(=O)NC(C)C)ccc12 [Compound 115, N-isopropyl-2-methyl-2-[4-(o-tolyl)-2-oxo-chromen-7-yl]oxy-propanamide] | 10 to 50 nM | 100 to 1000 nM
Cc1ccccc1-c1cc(=O)oc2cc(O[C@H](C)C(=O)N3CCC[C@H](C(=O)O)C3)ccc12 [Compound 27, (3S)-1-[(2R)-2-[4-(o-tolyl)-2-oxo-chromen-7-yl]oxypropanoyl]piperidine-3-carboxylic acid] | < 10 nM | < 20 nM
CCCCCCCOC(=O)C[C@H]1CCCN(C(=O)[C@@H](C)Oc2ccc3c(-c4ccc(F)cc4Cl)cc(=O)oc3c2)C1 [Compound 126, heptyl 2-[(3R)-1-[(2R)-2-[4-(2-chloro-4-fluoro-phenyl)-2-oxo-chromen-7-yl]oxypropanoyl]-3-piperidyl]acetate] | < 10 nM | 100 to 1000 nM
CNS(=O)(=O)C1CCCN(C(=O)C(C)Oc2ccc3c(-c4ccccc4C)cc(=O)oc3c2)C1 (centres unmarked) [Compound 18, N-methyl-1-[2-[4-(o-tolyl)-2-oxo-chromen-7-yl]oxypropanoyl]piperidine-3-sulfonamide] | < 10 nM | < 20 nM
C[C@@H](Oc1ccc2c(-c3ccccc3Cl)cc(=O)oc2c1)C(=O)N1CCC[C@H](C(=O)O)C1 [Compound 23, (3S)-1-[(2R)-2-[4-(2-chlorophenyl)-2-oxo-chromen-7-yl]oxypropanoyl]piperidine-3-carboxylic acid] | < 10 nM | < 20 nM
CNC(=O)C1CCCN(C(=O)C(C)Oc2ccc3c(-c4ccccc4Cl)cc(=O)oc3c2)C1 (centres unmarked) [Compound 15, 1-[2-[4-(2-chlorophenyl)-2-oxo-chromen-7-yl]oxypropanoyl]-N-methyl-piperidine-3-carboxamide] | < 10 nM | < 20 nM
CCNC(=O)C(C)Oc1ccc2c(-c3ccccc3C)cc(=O)oc2c1 (centres unmarked) [Compound 85, N-ethyl-2-[4-(o-tolyl)-2-oxo-chromen-7-yl]oxy-propanamide] | 10 to 50 nM | 20 to 100 nM
C[C@@H](Oc1ccc2c(-c3ccc(F)cc3Cl)cc(=O)oc2c1)C(=O)N1CCC[C@H](C(=O)OCCN2CCOCC2)C1 [Compound 119, 2-morpholinoethyl (3S)-1-[(2R)-2-[4-(2-chloro-4-fluoro-phenyl)-2-oxo-chromen-7-yl]oxypropanoyl]piperidine-3-carboxylate] | < 10 nM | 
CC(Oc1ccc2c(-c3cccc(F)c3Cl)cc(=O)oc2c1)C(=O)O (centres unmarked) [Compound 94, 2-[4-(2-chloro-3-fluoro-phenyl)-2-oxo-chromen-7-yl]oxypropanoic acid] |  | 20 to 100 nM
Cc1ccccc1-c1cc(=O)oc2cc(OC(C)C(=O)Nc3ccccn3)ccc12 (centres unmarked) [Compound 4, 2-[4-(o-tolyl)-2-oxo-chromen-7-yl]oxy-N-(2-pyridyl)propanamide] |  | < 20 nM
CCOC(=O)C1(C)CCCN(C(=O)C(C)Oc2ccc3c(-c4ccccc4Cl)cc(=O)oc3c2)C1 (centres unmarked) [Compound 75, ethyl 1-[2-[4-(2-chlorophenyl)-2-oxo-chromen-7-yl]oxypropanoyl]-3-methyl-piperidine-3-carboxylate] |  | 20 to 100 nM
C[C@@H](Oc1ccc2c(-c3ccccc3Cl)cc(=O)oc2c1)C(=O)N1CCC[C@@H](CC(=O)O)C1 [Compound 102, 2-[(3S)-1-[(2R)-2-[4-(2-chlorophenyl)-2-oxo-chromen-7-yl]oxypropanoyl]-3-piperidyl]acetic acid] |  | < 20 nM
COC(=O)C[C@H]1CCCN(C(=O)[C@@H](C)Oc2ccc3c(-c4ccccc4Cl)cc(=O)oc3c2)C1 [Compound 101, methyl 2-[(3R)-1-[(2R)-2-[4-(2-chlorophenyl)-2-oxo-chromen-7-yl]oxypropanoyl]-3-piperidyl]acetate] |  | < 20 nM
CC(C)OC(=O)[C@@H](C)Oc1ccc2c(-c3ccccc3Cl)cc(=O)oc2c1 [Compound 64, isopropyl (2R)-2-[4-(2-chlorophenyl)-2-oxo-chromen-7-yl]oxypropanoate] |  | 20 to 100 nM
